Data on 35 compounds can be found in patent publication US6589984B1, “Benzofurylpyrone derivatives” (Teijin Limited, priority 1998, dated 2003).

The structures appear in SMILES notation. pIC50: −log10 of the molar value. Some results are limits rather than exact numbers.

In the first assay the test system is Human hepatic cancer cells HepG2. The experiment in a line: TG production inhibiting activity (14C-acetic acid incorporation into TG) in HepG2 cells. The assay is classed as cell-based. As to conditions: Homo sapiens, HepG2; group criterion, alternatives: IC50 at least 10 μM and less than 100 μM, or at least 5% and less than 30% inhibition at 1 μM, or at least 30% and less than 50% inhibition at 10 μM. The protocol: Human hepatic cancer cells HepG2 were inoculated into a 24-well plate (Costar No. 3524) at 4×10^4 cells/well, and 1 ml of medium (eRDF medium containing 10% bovine serum (Kyokuto Chemical Co.)) was used for 6 day culturing with 5% CO2 at 37° C. After drawing off the supernatant medium, the cells were freshly rinsed with 1 ml of PBS(−) buffer solution (Takara Shuzo) and drawn off. This procedure was repeated twice and then 1 ml of fresh medium (eRDF medium) was added.
6-(benzofuran-2-yl)-3,5-dimethyl-4-hydroxy-2H-pyran-2-one (Example 2) was dissolved in dimethylsulfoxide (DMSO) to prepare a 20 mM sample stock solution. A diluted solution was obtained by diluting the sample solution with DMSO.
To the cells prepared above there were added the sample stock solution or its diluted solution at 5 μl per well and 10 μl of ^14C-acetic acid solution (a solution of Amersham Code No. CFA13 diluted 4.4-fold with PBS(−) buffer), and culturing was carried out for one day with 5% CO2 at 37° C.
After the culturing was completed, the culture solution was removed, and 1 ml of extraction solution (a mixture of n-hexane and isopropyl alcohol at 2:1) was added for extraction treatment on the lipid components in the cells. After the treatment, the extract containing the obtained lipid components was air-dried, the residue was redissolved in 20 μl of a mixed solution of n-hexane and ethyl acetate at 9:1, and the solution was spotted on a thin-layer chromatography plate (S319, Tokyo Kasei) and developed by thin-layer chromatography with the mixed solution mentioned above. After air-drying, the lipid components were colored with iodine vapor, the portion corresponding to TG was cut out, and the amount of TG biosynthesized was measured with a liquid scintillation counter.
Usually pIC50 stands for the negative decadic logarithm of the IC50, by convention in mol/L. As for `Cc1c(-c2cc3cc(OCc4nccs4)ccc3o2)oc(=O)c(C)c1O` [Example 60, 4-hydroxy-3,5-dimethyl-6-(5-(2-thiazolylmethoxy)benzofuran-2-yl)-2H-pyran-2-one], the negative-log IC50 (pIC50) was 4.00 to 5.00.

On to `Cc1c(O)c(Oc2ccccc2)c(-c2cc3ccccc3o2)oc1=O` [Example 67, 6-(benzofuran-2-yl)-4-hydroxy-3-methyl-5-phenoxy-2H-pyran-2-one], for which the pIC50 is 4.00 to 5.00.

`CC=CCc1c(-c2cc3ccccc3o2)oc(=O)c(C)c1O` [Example 68, 6-(benzofuran-2-yl)-5-(2-butenyl)-4-hydroxy-3-methyl-2H-pyran-2-one] showed a negative logarithm of the IC50 (pIC50) of 4.00 to 5.00.

Turning to `Cc1c(-c2cc3ccccc3o2)oc(=O)c(C)c1OC(=O)c1ccc(O)nc1` [Example 74, 6-(benzofuran-2-yl)-3,5-dimethyl-4-(6-hydroxynicotinoyloxy)-2H-pyran-2-one], the pIC50 was 4.00 to 5.00.

Turning to `Cc1c(-c2cc3cc(OCc4ccc(Cl)cc4)ccc3o2)oc(=O)c(C)c1O` [Example 79, 6-(5-(4-chlorobenzyloxy)benzofuran-2-yl)-3,5-dimethyl-4-hydroxy-2H-pyran-2-one], the pIC50 is 4.00 to 5.00.

`Cc1c(-c2cc3cc(OCc4ccccc4Br)ccc3o2)oc(=O)c(C)c1O` [Example 81, 6-(5-(2-bromobenzyloxy)benzofuran-2-yl)-3,5-dimethyl-4-hydroxy-2H-pyran-2-one] had a pIC50 of 4.00 to 5.00.

With `Cc1c(-c2cc3cc(OCc4cccc(Br)c4)ccc3o2)oc(=O)c(C)c1O` [Example 83, 6-(5-(3-bromobenzyloxy)benzofuran-2-yl)-3,5-dimethyl-4-hydroxy-2H-pyran-2-one], the pIC50 is 4.00 to 5.00.

For the compound `Cc1c(-c2cc3cc(OCc4ccccn4)ccc3o2)oc(=O)c(C)c1O` [Example 87, 3,5-dimethyl-4-hydroxy-6-(5-(2-pyridylmethoxy)benzofuran-2-yl)-2H-pyran-2-one], the pIC50 is 4.00 to 5.00.

In the case of `Cc1c(-c2cc3cc(OCC4CCCCN4C)ccc3o2)oc(=O)c(C)c1O` (centres unmarked) [Example 95, 3,5-dimethyl-4-hydroxy-6-(5-(1-methylpiperidin-2-ylmethoxy)benzofuran-2-yl)-2H-pyran-2-one], the pIC50 is 4.00 to 5.00.

With `Cc1c(-c2cc3cc(OC(CN(C)C)CN(C)C)ccc3o2)oc(=O)c(C)c1O` [Example 107, 6-(5-(1,3-bis(dimethylamino)-2-propoxy)benzofuran-2-yl)-3,5-dimethyl-4-hydroxy-2H-pyran-2-one], the pIC50 was 4.00 to 5.00.

`Cc1c(-c2cc3cc(OCCN4CCOCC4)ccc3o2)oc(=O)c(C)c1O` [Example 115, 3,5-dimethyl-4-hydroxy-6-(5-(2-(morpholin-4-yl)ethoxy)benzofuran-2-yl)-2H-pyran-2-one] showed a pIC50 of 4.00 to 5.00.

In the case of `Cc1c(-c2cc3cc(OCc4ccc(C(F)(F)F)cc4)ccc3o2)oc(=O)c(C)c1O` [Example 124, 3,5-dimethyl-4-hydroxy-6-(5-(4-(trifluoromethyl)benzyloxy)benzofuran-2-yl)-2H-pyran-2-one], the pIC50 is 4.00 to 5.00.

`Cc1c(-c2cc3cc(OCC4CCCC4)ccc3o2)oc(=O)c(C)c1O` [Example 126, 6-(5-(cyclopentylmethoxy)benzofuran-2-yl)-3,5-dimethyl-4-hydroxy-2H-pyran-2-one] showed a pIC50 of 4.00 to 5.00.

Staying with this assay, now noted: Homo sapiens, HepG2; group criterion, alternatives: IC50 less than 10 μM, or at least 30% inhibition at 1 μM, or at least 50% inhibition at 10 μM.
For `Cc1c(-c2cc3cc(OCc4ccccc4)ccc3o2)oc(=O)c(C)c1OC(=O)c1ccncc1` [Example 56, 6-(5-benzyloxybenzofuran-2-yl)-3,5-dimethyl-4-isonicotinoyloxy-2H-pyran-2-one], the pIC50 was greater than 5.00.

For `CCc1c(-c2cc3cc(OCc4ccccc4)ccc3o2)oc(=O)c(C)c1O` [Example 57, 6-(5-benzyloxybenzofuran-2-yl)-5-ethyl-4-hydroxy-3-methyl-2H-pyran-2-one], the pIC50 was greater than 5.00.

For `CC(=O)Oc1c(C)c(-c2cc3cc(OCc4nccs4)ccc3o2)oc(=O)c1C` [Example 59, 4-acetyloxy-3,5-dimethyl-6-(5-(2-thiazolylmethoxy)benzofuran-2-yl)-2H-pyran-2-one], the pIC50 was greater than 5.00.

Compound `Cc1c(-c2cc3ccccc3o2)oc(=O)c(C)c1OC(=O)CCc1ccccc1` [Example 61, 6-(benzofuran-2-yl)-3,5-dimethyl-4-(3-phenylpropionyloxy)-2H-pyran-2-one] gave a pIC50 greater than 5.00.

`Cc1c(-c2cc3ccccc3o2)oc(=O)c(C)c1OC(=O)c1ccco1` [Example 62, 6-(benzofuran-2-yl)-3,5-dimethyl-4-(2-furoyloxy)-2H-pyran-2-one] had a pIC50 greater than 5.00.

The compound `Cc1c(-c2cc3ccccc3o2)oc(=O)c(C)c1OC(=O)c1cccnc1` [Example 63, 6-(benzofuran-2-yl)-3,5-dimethyl-4-nicotinoyloxy-2H-pyran-2-one] had a pIC50 greater than 5.00.

`CC(=O)NC(CC(=O)N1CCOCC1)C(=O)Oc1c(C)c(-c2cc3ccccc3o2)oc(=O)c1C` (centres unmarked) [Example 64, 6-(benzofuran-2-yl)-3,5-dimethyl-4-(2-acetylamino-4-(morpholin-4-yl)-4-oxobutyryloxy)-2H-pyran-2-one] gave a pIC50 greater than 5.00.

`CC(=O)Oc1c(C)c(-c2cc3cc(Br)ccc3o2)oc(=O)c1C` [Example 65, 4-acetyloxy-6-(5-bromobenzofuran-2-yl)-3,5-dimethyl-2H-pyran-2-one] had a pIC50 greater than 5.00.

Regarding `Cc1c(O)c(CC2CCCC2)c(-c2cc3ccccc3o2)oc1=O` [Example 66, 6-(benzofuran-2-yl)-5-cyclopentylmethyl-4-hydroxy-3-methyl-2H-pyran-2-one], the pIC50 is greater than 5.00.

Turning to `Cc1c(-c2cc3ccccc3o2)oc(=O)c(C)c1C(=O)OC1CCC(=O)N1` (centres unmarked) [Example 70, 6-(benzofuran-2-yl)-3,5-dimethyl-4-(2-pyrrolidon-5-ylcarboxy)-2H-pyran-2-one], the pIC50 is greater than 5.00.

`Cc1c(-c2cc3ccccc3o2)oc(=O)c(C)c1OC(=O)CNC(=O)OC(C)(C)C` [Example 71, 6-(benzofuran-2-yl)-4-(2-(t-butoxycarbonylamino)acetyloxy)-3,5-dimethyl-2H-pyran-2-one] showed a pIC50 greater than 5.00.

`COc1ccc(C(=O)Oc2c(C)c(-c3cc4ccccc4o3)oc(=O)c2C)c(OC)c1` [Example 72, 6-(benzofuran-2-yl)-4-(2,4-dimethoxybenzoyloxy)-3,5-dimethyl-2H-pyran-2-one] had a pIC50 greater than 5.00.

For `Cc1c(-c2cc3ccccc3o2)oc(=O)c(C)c1OC(=O)c1cccc(N(C)C)c1` [Example 75, 6-(benzofuran-2-yl)-3,5-dimethyl-4-(3-dimethylaminobenzoyloxy)-2H-pyran-2-one], the pIC50 is greater than 5.00.

On to `CC(=O)Nc1ccc(C(=O)Oc2c(C)c(-c3cc4ccccc4o3)oc(=O)c2C)cc1` [Example 76, 4-(4-(acetylamino)benzoyloxy)-6-(benzofuran-2-yl)-3,5-dimethyl-2H-pyran-2-one], for which the pIC50 was greater than 5.00.

`Cc1c(-c2cc3cc(OCc4ccccc4F)ccc3o2)oc(=O)c(C)c1O` [Example 78, 3,5-dimethyl-6-(5-(2-fluorobenzyloxy)benzofuran-2-yl)-4-hydroxy-2H-pyran-2-one] showed a pIC50 greater than 5.00.

In turn, `Cc1c(-c2cc3cc(OCc4cccnc4)ccc3o2)oc(=O)c(C)c1O` [Example 89, 3,5-dimethyl-4-hydroxy-6-(5-(3-pyridylmethoxy)benzofuran-2-yl)-2H-pyran-2-one] gave a pIC50 greater than 5.00.

Compound `Cc1c(-c2cc3cc(OCC4CCCN(C)C4)ccc3o2)oc(=O)c(C)c1O` (centres unmarked) [Example 97, 3,5-dimethyl-4-hydroxy-6-(5-(1-methylpiperidin-3-ylmethoxy)benzofuran-2-yl)-2H-pyran-2-one] showed a pIC50 greater than 5.00.

For the compound `Cc1c(-c2cc3cc(OCc4ccc(C(=O)O)cc4)ccc3o2)oc(=O)c(C)c1O` [Example 117, 6-(5-(4-carboxybenzyloxy)benzofuran-2-yl)-3,5-dimethyl-4-hydroxy-2H-pyran-2-one], the pIC50 was greater than 5.00.

`Cc1c(-c2cc3cc(OCc4ccccc4C(F)(F)F)ccc3o2)oc(=O)c(C)c1O` [Example 120, 3,5-dimethyl-4-hydroxy-6-(5-(2-(trifluoromethyl)benzyloxy)benzofuran-2-yl)-2H-pyran-2-one] gave a negative-log IC50 (pIC50) greater than 5.00.

With `Cc1c(-c2cc3cc(OCc4cccc(C(F)(F)F)c4)ccc3o2)oc(=O)c(C)c1O` [Example 122, 3,5-dimethyl-4-hydroxy-6-(5-(3-(trifluoromethyl)benzyloxy)benzofuran-2-yl)-2H-pyran-2-one], the pIC50 is greater than 5.00.

`Cc1ccc(COc2ccc3oc(-c4oc(=O)c(C)c(O)c4C)cc3c2)cc1C` [Example 134, 6-(5-(3,4-dimethylbenzyloxy)benzofuran-2-yl)-3,5-dimethyl-4-hydroxy-2H-pyran-2-one] gave a pIC50 greater than 5.00.

Consider `Cc1c(-c2cc3cc(OCc4cccs4)ccc3o2)oc(=O)c(C)c1O` [Example 138, 3,5-dimethyl-4-hydroxy-6-(5-((2-thienyl)methoxy)benzofuran-2-yl)-2H-pyran-2-one], for which the pIC50 is greater than 5.00.
